{"source": "patent US4980377A", "about": "“1-(aminophenyl)-2-aminopropanone derivatives” (Laboratoire L. Lafon, priority 1984, dated 1990)", "key": {"mice [1]": {"tested_on": "mice", "assay": "Behavioral despair", "format": "in vivo, mouse", "settings": "forcibly immersed mice, i.p.", "description": "Half an hour after they have received CRL 41 153, groups of 6 mice are placed in a beaker filled with water to a height of 6 cm. The total period of immobility between the 2nd and 6th minutes following immersion is noted."}, "mice [2]": {"tested_on": "mice", "assay": "Motility reduced by hypoxic aggression", "format": "in vivo, mouse", "settings": "i.p.", "description": "Half an hour after they have received CRL 41 153, the mice (10 per dose, 20 control animals) are subjected to acute hypobaric anoxia [pressure reduction of 600 mm Hg (i.e. about 8×10^4 Pa) in 90 seconds; release of vacuum in 45 seconds] and are then placed in an actimeter, where their motility is recorded for 10 minutes."}, "[3]": {"assay": "Acute toxicity by intraperitoneal administration", "format": "in vivo, mouse", "settings": "mouse, in vivo, ip; male mice", "description": "(§1) In the neuropsychopharmacological study which follows, a solution of CRL 41 153 in distilled water (pH 1.5) was administered intraperitoneally in a volume of 20 ml/kg to male mice and 5 ml/kg to male rats."}, "rats [4]": {"tested_on": "rats", "assay": "Interaction with apomorphine in rats", "format": "in vivo, rat", "settings": "i.p.", "description": "CRL 41 153 is administered to groups of 6 rats 0.5 hour before the subcutaneous injection of 0.5 mg/kg of apomorphine."}, "mice [5]": {"tested_on": "mice", "assay": "Spontaneous motility", "format": "in vivo, mouse", "settings": "i.p.", "description": "0.5 hour after they have received CRL 41 153, the mice (6 per dose, 12 control animals) are placed in an actimeter, where their motility is recorded for 30 minutes."}, "mice [6]": {"tested_on": "mice", "assay": "Interaction with reserpine", "format": "in vivo, mouse", "settings": "i.p.", "description": "Four hours after the intraperitoneal injection of 2.5 mg/kg of reserpine, groups of 6 mice receive CRL 41 153."}, "dogs": {"tested_on": "dogs", "assay": "Cardiovascular study in anesthetized dogs", "format": "in vivo, dog", "summary_of_the_method": "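Nembutal-anaesthetized dogs (~14 kg) given CRL 41 194 (n=2) or CRL 41 221 (n=4) intraduodenally at successive 0.1, 0.5, 1, 2.5, 5 and 10 mg/kg doses. Blood pressure, heart rate, femoral and vertebral flow, rectal temperature measured; skin colour observed, plus bile colour (CRL 41 194).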"}, "[7]": {"tested_on": "gravid White New Zealand female rabbits", "assay": "Teratogenicity in gravid White New Zealand rabbits", "format": "in vivo, rabbit", "settings": "day 5 to day 18 of gestation; for Affected foetuses, %: normal limit 1.5%", "summary_of_the_method": "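Fetuses harvested by cesarean on gestation day 29 were scored for number and for any malformation (limb blockade, anury, tail or skull defects, exencephaly).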"}, "rats [8]": {"tested_on": "rats", "assay": "Overall behavior and reactivities in rats", "format": "in vivo, rat", "settings": "dose not stated", "description": "as §1\n(§2) Groups of three animals are observed before and then 0.25 hour, 0.50 hour, 1 hour, 2 hours, 3 hours and 24 hours after the administration of CRL 41 153."}, "CNS": {"tested_on": "CNS", "assay": "Neuropsychopharmacological profile as a whole", "format": "in vivo, mice and rats", "description": "as §1"}, "mice [9]": {"tested_on": "mice", "assay": "Interaction with oxotremorine", "format": "in vivo, mouse", "settings": "i.p.", "description": "CRL 41 153 is administered to groups of 6 mice 0.5 hour before the intraperitoneal injection of 0.5 mg/kg of oxotremorine."}, "humans": {"tested_on": "humans", "assay": "Clinical study: vasodilator", "format": "in vivo, human", "description": "In the treatment of diseases associated with the blood circulation through the vessels."}, "[10]": {"assay": "pH of solutions in distilled water", "format": "physicochemical", "description": "The neuropsychopharmacological study was undertaken according to the procedures described above for CRL 41 153, CRL 41 213 being adminstered intraperitoneally, in solution in distilled water, in a volume of 20 ml/kg to male mice and a volume of 5 ml/kg to male rats, and the pH of the injected solution varying with the concentration of CRL 41 213 according to the data given in Table II below."}, "mice [11]": {"tested_on": "mice", "assay": "Interaction with barbital", "format": "in vivo, mouse", "settings": "i.p., barbital 220 mg/kg", "description": "Half an hour after the administration of CRL 41 153, groups of 10 mice receive an intraperitoneal injection of barbital (220 mg/kg)."}, "mice [12]": {"tested_on": "mice", "assay": "Motility reduced by habituation to the enclosure", "format": "in vivo, mouse", "settings": "i.p.", "description": "After they have stayed In the actimeters for 18 hours, (he mice (6 per dose, 12 control animals) receive CRL 41 153. They are immediately returned to their respective enclosures and, half an hour later, their motility is recorded for 30 minutes."}, "rats [13]": {"tested_on": "rats", "assay": "Interaction with amphetamine", "format": "in vivo, rat", "settings": "i.p.", "description": "Amphetamine (2 mg/kg) is injected intraperitoneally into groups of 6 rats 30 minutes after the administration of CRL 41 153. […] 4 mg/kg and 16 mg/kg, CRL 41 153 potentiates the intensity and duration of the stereotypies induced by amphetamine."}, "mice [14]": {"tested_on": "mice", "assay": "Overall behavior and reactivities in mice", "format": "in vivo, mouse", "settings": "dose not stated", "description": "as §1, §2"}, "mice [15]": {"tested_on": "mice", "assay": "Interaction with apomorphine in mice", "format": "in vivo, mouse", "settings": "i.p.", "description": "Groups of 6 mice receive CRL 41 153 0.5 hour before the subcutaneous injection of 1 or 16 mg/kg of apomorphine."}, "[16]": {"settings": "anesthetized dogs, intraduodenal"}}, "note": "“Also recorded” adds a separate entry of the source. Where a name gives a salt, the structure may show the parent alone."}
{"compound": "CC(C(=O)c1ccc(N)cc1)N1CCCC1", "note": "(stereo not drawn) [CRL 41 222, 1-(4-aminophenyl)-2-pyrrolidinopropanone dihydrochloride]", "values": [{"measurement": "Period of immobility due to despair", "setting": "mice [1]", "value": "a reduction in the period of immobility"}, {"measurement": "Motor recovery of mice after hypobaric hypoxia", "setting": "mice [2]", "value": "improvement in the motor recovery"}, {"measurement": "LD50", "setting": "[3]", "value": 87, "unit": "mg/kg"}, {"measurement": "Effect on stereotypies induced by apomorphine", "setting": "rats [4]", "value": "potentiation of the stereotypies"}, {"measurement": "Spontaneous motor activity", "setting": "mice [5]", "value": "an increase in the motor activity"}, {"measurement": "Effect on hypothermia induced by reserpine", "setting": "mice [6]", "value": "antagonism of the hypothermia"}, {"measurement": "Effect on ptosis induced by reserpine", "setting": "mice [6]", "value": "antagonism of the ptosis induced by reserpine"}, {"measurement": "Vasodilator (conclusion)", "setting": "dogs", "value": "vasodiating properties"}, {"measurement": "Effect of propanolol or atenolol on the action of the product", "setting": "dogs; anesthetized dogs", "value": "acts by stimulating the β-cardiac and vascular receptors"}, {"measurement": "Effect on hypertension induced by norepinephrine", "setting": "dogs; anesthetized dogs", "value": "moderately increases the hypertension induced by norepinephrine"}, {"measurement": "Effects of isoprenaline (not further specified)", "setting": "dogs; anesthetized dogs", "value": "without modifying the effects of isoprenaline"}, {"measurement": "Rectal temperature", "setting": "dogs; anesthetized dogs", "value": "The rectal temperature and skin temperature rise"}, {"measurement": "Skin temperature", "setting": "dogs; anesthetized dogs", "value": "The rectal temperature and skin temperature rise"}, {"measurement": "Blood pressure", "setting": "dogs; [16]", "value": "A hypotensive action appears at 20 mg/kg as a drop in the diastolic blood pressure"}, {"measurement": "Femoral flow", "setting": "dogs; [16]", "value": "substantial and regular increase in the femoral and vertebral flows"}, {"measurement": "Heart rate", "setting": "dogs; [16]", "value": "accompanied by tachycardia"}, {"measurement": "Respiration", "setting": "dogs; [16]", "value": "Respiratory stimulation is observed in all the animals"}, {"measurement": "Vertebral flow", "setting": "dogs; [16]", "value": "substantial and regular increase in the femoral and vertebral flows"}, {"measurement": "Affected foetuses, number", "setting": "[7]; 5 mg/kg daily", "value": 1}, {"measurement": "Total foetuses (live)", "setting": "[7]; 5 mg/kg daily", "value": 85}, {"measurement": "Affected foetuses, %", "setting": "[7]; 5 mg/kg daily", "value": 1.29, "unit": "%"}, {"measurement": "Affected foetuses, number", "setting": "[7]; 10 mg/kg daily", "value": 0}, {"measurement": "Total foetuses (live)", "setting": "[7]; 10 mg/kg daily", "value": 92}, {"measurement": "Affected foetuses, %", "setting": "[7]; 10 mg/kg daily", "value": 0, "unit": "%"}, {"measurement": "Overall behavior: observed effects (summary)", "setting": "rats [8]", "value": "excitation in mice and rats"}, {"measurement": "Stereotype movements (summary)", "setting": "rats [8]", "value": "presence of stereotype movements"}, {"measurement": "Antidepressant effects (overall)", "setting": "CNS; conclusion of the tests", "value": "possessing antidepressant, stimulant and arousing properties"}, {"measurement": "Stimulant effects (overall)", "setting": "CNS; conclusion of the tests", "value": "possessing antidepressant, stimulant and arousing properties"}, {"measurement": "α-adrenergic stimulant effects (overall)", "setting": "CNS; conclusion of the tests", "value": "peripheral α-adrenergic stimulant effects"}, {"measurement": "Peripheral α-adrenergic signs (mydriasis, salivation, lacrimation, exophthalmos)", "setting": "CNS; species and dose not stated, dihydrochloride", "value": "mydriasis; also recorded: salivation and lacrimation"}, {"measurement": "Effect on hypothermic action of oxotremorine", "setting": "mice [9]", "value": "antagonism of the hypothermia"}, {"measurement": "Effect on trembling induced by oxotremorine", "setting": "mice [9]", "value": "antagonism of the trembling induced by oxotremorine"}, {"measurement": "Vasodilator in human clinical use", "setting": "humans", "value": "good peripheral vasodilator at a daily dose of 2×10 mg"}, {"measurement": "pH", "setting": "[10]; 0.1 g/liter in distilled water", "value": 5}, {"measurement": "pH", "setting": "[10]; 0.2 g/liter in distilled water", "value": 4.5}, {"measurement": "pH", "setting": "[10]; 0.4 g/liter in distilled water", "value": 4.0}, {"measurement": "pH", "setting": "[10]; 0.8 g/liter in distilled water", "value": 3.5}, {"measurement": "pH", "setting": "[10]; 1.6 g/liter in distilled water", "value": 3.0}, {"measurement": "pH", "setting": "[10]; 3.2 g/liter in distilled water", "value": 2.5}, {"measurement": "pH", "setting": "[10]; 6.4 g/liter in distilled water", "value": 2.0}, {"measurement": "pH", "setting": "[10]; 12.8 g/liter in distilled water", "value": 1.5}, {"measurement": "pH", "setting": "[10]; ≤0.05 g/liter in distilled water", "value": 5.5}, {"measurement": "Duration of the sleep induced by barbital", "setting": "mice [11]", "value": "distinct antagonism of the sleep induced by barbital"}, {"measurement": "Motor activity of mice accustomed to their enclosure", "setting": "mice [12]", "value": "resumption in the motor activity of mice accustomed to their enclosure"}, {"measurement": "Effect on stereotypies induced by amphetamine", "setting": "rats [13]", "value": "potentiation of the stereotypies"}, {"measurement": "Overall behavior: observed effects (summary)", "setting": "mice [14]", "value": "excitation in mice and rats"}, {"measurement": "Stereotype movements (summary)", "setting": "mice [14]", "value": "presence of stereotype movements"}, {"measurement": "Effect on hypothermia induced by apomorphine", "setting": "mice [15]", "value": "antagonism of the hypothermia"}]}
